Activity calls are given as the source filed them. The calls are words filed in the database; no cut-off is given here. Where only a bound is given, the exact number is not on record here.

This is an account of results in ChEMBL document CHEMBL5236659, “Design, synthesis and antitumor activity of novel thiophene- triazine derivatives bearing arylurea unit as potent PI3K/mTOR inhibitorss” (Bioorg Med Chem, 2023).

The test system of series [1] is NCI-H2228. Briefly: Antiproliferative activity against human NCI-H2228 cells assessed as inhibition of cell growth incubated for 72 hrs by MTT assay. The format is functional, cell-based. The following applies: Homo sapiens, NCI-H2228, 72 h; read-out: IC50.
For series [2], the species on record is Homo sapiens. Briefly: Selectivity index, ratio of IC50 for inhibition of PI3Kalpha (unknown origin) to IC50 for inhibition of mTOR (unknown origin) by kinase glo luminescent assay. On the technique in general: In Kinase-Glo more light means more ATP remaining.
The target of series [3] is T1, Phosphatidylinositol 4,5-bisphosphate 3-kinase catalytic subunit alpha isoform (Homo sapiens, UniProt P42336). As to the kind of experiment: Inhibition of PI3Kalpha (unknown origin) by kinase-glo luminescent assay.
T1 sequence (P42336 whole entry, canonical isoform): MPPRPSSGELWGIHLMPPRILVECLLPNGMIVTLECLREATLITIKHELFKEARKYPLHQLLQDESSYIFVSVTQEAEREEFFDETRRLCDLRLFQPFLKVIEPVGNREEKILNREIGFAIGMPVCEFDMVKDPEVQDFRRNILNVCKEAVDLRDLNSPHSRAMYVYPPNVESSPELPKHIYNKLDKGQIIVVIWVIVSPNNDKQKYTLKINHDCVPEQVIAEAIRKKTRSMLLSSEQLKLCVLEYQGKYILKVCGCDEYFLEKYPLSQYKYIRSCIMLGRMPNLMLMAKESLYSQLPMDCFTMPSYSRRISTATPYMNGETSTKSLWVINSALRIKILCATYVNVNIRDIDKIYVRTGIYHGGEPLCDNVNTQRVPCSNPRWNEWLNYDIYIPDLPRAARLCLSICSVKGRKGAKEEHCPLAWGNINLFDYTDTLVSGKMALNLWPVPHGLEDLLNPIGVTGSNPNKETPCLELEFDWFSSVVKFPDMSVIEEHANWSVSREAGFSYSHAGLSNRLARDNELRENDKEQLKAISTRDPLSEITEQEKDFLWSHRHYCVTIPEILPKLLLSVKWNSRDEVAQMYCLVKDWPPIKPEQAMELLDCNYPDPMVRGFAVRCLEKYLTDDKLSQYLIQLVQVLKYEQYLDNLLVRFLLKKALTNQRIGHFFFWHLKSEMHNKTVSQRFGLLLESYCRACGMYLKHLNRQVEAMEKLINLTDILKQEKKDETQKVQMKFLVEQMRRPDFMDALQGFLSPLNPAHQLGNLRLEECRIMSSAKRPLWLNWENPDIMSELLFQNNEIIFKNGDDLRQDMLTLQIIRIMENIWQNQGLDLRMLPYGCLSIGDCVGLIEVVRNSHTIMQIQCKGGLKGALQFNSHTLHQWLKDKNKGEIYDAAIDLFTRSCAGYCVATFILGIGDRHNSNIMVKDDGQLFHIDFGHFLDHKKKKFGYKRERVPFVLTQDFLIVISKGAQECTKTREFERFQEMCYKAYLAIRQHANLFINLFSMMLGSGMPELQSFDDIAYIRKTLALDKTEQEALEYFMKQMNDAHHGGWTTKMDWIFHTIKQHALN
Series [4] in a line: Selectivity ratio of IC50 for antiproliferative activity against human A549 cells to IC50 for antiproliferative activity against human NCI-H1975 cells overexpressing EGFR L858R/T790M mutant. The format is functional.
Series [5] deals with T2, Serine/threonine-protein kinase mTOR (Homo sapiens, UniProt P42345). As to the kind of experiment: Inhibition of mTOR (unknown origin) by kinase-glo luminescent assay.
The subject of series [6] is NCI-H1975. As to the kind of experiment: Antiproliferative activity against human NCI-H1975 cells overexpressing EGFR L858R/T790M mutant assessed as inhibition of cell growth incubated for 72 hrs by MTT assay. The format is functional, cell-based. To be noted: NCI-H1975, 72 h. On the technique in general: Tetrazolium assays rely on reduction of a dye to a coloured formazan, in cell work by metabolically active cells.

Series [7] relates to MCF7. Briefly: Antiproliferative activity against human MCF7 cells assessed as inhibition of cell growth incubated for 72 hrs by MTT assay. The format is functional, cell-based. To be noted: MCF7, 72 h.
Series [8] can be described thus: Antiproliferative activity against human U-87 MG cells assessed as inhibition of cell growth incubated for 72 hrs by MTT assay. The format is functional, cell-based, U-87MG ATCC.
The nature of series [9]: Selectivity ratio of IC50 for antiproliferative activity against human HeLa cells to IC50 for antiproliferative activity against paclitaxel-resistant human HeLa cells. The format is functional.
Series [10] is described as follows: Antiproliferative activity against human OVCAR-2 cells assessed as inhibition of cell growth incubated for 72 hrs by MTT assay. The format is functional, cell-based. The following applies: OVCAR-2, 72 h.
Series [11] concerns HeLa. As to the kind of experiment: Antiproliferative activity against human HeLa cells assessed as inhibition of cell growth incubated for 72 hrs by MTT assay. The format is functional, cell-based.
Series [12] deals with T1, Phosphatidylinositol 4,5-bisphosphate 3-kinase catalytic subunit alpha isoform. Briefly: Inhibition of PI3Kalpha (unknown origin) at 1 uM by kinase-glo luminescent assay relative to control.
The target of series [13] is T2, Serine/threonine-protein kinase mTOR. Briefly: Inhibition of mTOR (unknown origin) at 1 uM by kinase-glo luminescent assay relative to control.
For series [14], the system named is NCI-H460. Briefly: Antiproliferative activity against human NCI-H460 cells assessed as inhibition of cell growth incubated for 72 hrs by MTT assay. The format is functional, cell-based. The following applies: NCI-H460, 72 h.
Series [15] relates to HeLa. As to the kind of experiment: Antiproliferative activity against paclitaxel-resistant human HeLa cells assessed as inhibition of cell growth incubated for 72 hrs by MTT assay. The format is functional, cell-based.
For series [16], the system named is A549. Briefly: Antiproliferative activity against human A549 cells assessed as inhibition of cell growth incubated for 72 hrs by MTT assay. To be noted: A549, 72 h. The format is functional, cell-based.
Series [17] has as its target RAC-alpha serine/threonine-protein kinase (Homo sapiens) (UniProt P31749). Briefly: Inhibition of AKT1 (unknown origin) at 1 uM by kinase-glo luminescent assay relative to control.
In series [18] the target is Vascular endothelial growth factor receptor 2 (Homo sapiens) (UniProt P35968). As to the kind of experiment: Inhibition of KDR (unknown origin) at 1 uM by kinase-glo luminescent assay relative to control.
Chain of Vascular endothelial growth factor receptor 2 (Homo sapiens) (P35968 whole entry): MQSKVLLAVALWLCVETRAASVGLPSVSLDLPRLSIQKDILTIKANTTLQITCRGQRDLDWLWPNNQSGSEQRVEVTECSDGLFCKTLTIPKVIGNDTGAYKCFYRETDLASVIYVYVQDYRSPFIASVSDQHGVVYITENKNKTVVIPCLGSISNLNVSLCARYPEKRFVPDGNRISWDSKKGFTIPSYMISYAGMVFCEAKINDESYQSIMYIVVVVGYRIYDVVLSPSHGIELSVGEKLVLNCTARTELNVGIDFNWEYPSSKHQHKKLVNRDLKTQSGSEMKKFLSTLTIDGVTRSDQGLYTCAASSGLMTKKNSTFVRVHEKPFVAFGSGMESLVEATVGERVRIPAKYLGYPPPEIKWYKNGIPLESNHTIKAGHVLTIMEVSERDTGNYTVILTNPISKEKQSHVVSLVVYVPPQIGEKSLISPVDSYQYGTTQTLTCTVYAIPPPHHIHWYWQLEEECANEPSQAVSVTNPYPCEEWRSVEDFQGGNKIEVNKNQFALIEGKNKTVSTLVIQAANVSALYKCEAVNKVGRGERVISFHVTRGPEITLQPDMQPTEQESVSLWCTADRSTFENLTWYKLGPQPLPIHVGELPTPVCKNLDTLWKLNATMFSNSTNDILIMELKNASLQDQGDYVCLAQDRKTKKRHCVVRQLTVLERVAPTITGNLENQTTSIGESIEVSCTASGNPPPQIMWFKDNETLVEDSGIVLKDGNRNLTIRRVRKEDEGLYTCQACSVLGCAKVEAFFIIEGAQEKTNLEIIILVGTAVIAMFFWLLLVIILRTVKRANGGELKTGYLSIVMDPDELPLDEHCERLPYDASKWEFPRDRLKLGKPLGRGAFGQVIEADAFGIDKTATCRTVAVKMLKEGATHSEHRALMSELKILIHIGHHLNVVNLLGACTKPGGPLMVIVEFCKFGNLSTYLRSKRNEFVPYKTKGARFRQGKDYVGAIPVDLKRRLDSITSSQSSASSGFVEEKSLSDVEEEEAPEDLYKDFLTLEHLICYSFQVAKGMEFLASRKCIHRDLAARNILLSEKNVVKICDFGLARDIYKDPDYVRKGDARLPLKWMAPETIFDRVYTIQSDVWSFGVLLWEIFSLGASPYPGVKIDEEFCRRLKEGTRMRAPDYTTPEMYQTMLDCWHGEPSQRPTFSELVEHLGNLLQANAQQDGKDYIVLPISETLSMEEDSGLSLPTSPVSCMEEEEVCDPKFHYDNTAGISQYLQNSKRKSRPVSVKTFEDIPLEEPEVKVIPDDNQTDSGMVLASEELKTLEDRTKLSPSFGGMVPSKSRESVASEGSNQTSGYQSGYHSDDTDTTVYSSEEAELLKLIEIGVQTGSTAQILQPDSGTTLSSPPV
Series [19] deals with Epidermal growth factor receptor (Homo sapiens) (UniProt P00533). Briefly: Inhibition of EGFR (unknown origin) at 1 uM by kinase-glo luminescent assay relative to control.
Chain of Epidermal growth factor receptor (Homo sapiens) (P00533 whole entry): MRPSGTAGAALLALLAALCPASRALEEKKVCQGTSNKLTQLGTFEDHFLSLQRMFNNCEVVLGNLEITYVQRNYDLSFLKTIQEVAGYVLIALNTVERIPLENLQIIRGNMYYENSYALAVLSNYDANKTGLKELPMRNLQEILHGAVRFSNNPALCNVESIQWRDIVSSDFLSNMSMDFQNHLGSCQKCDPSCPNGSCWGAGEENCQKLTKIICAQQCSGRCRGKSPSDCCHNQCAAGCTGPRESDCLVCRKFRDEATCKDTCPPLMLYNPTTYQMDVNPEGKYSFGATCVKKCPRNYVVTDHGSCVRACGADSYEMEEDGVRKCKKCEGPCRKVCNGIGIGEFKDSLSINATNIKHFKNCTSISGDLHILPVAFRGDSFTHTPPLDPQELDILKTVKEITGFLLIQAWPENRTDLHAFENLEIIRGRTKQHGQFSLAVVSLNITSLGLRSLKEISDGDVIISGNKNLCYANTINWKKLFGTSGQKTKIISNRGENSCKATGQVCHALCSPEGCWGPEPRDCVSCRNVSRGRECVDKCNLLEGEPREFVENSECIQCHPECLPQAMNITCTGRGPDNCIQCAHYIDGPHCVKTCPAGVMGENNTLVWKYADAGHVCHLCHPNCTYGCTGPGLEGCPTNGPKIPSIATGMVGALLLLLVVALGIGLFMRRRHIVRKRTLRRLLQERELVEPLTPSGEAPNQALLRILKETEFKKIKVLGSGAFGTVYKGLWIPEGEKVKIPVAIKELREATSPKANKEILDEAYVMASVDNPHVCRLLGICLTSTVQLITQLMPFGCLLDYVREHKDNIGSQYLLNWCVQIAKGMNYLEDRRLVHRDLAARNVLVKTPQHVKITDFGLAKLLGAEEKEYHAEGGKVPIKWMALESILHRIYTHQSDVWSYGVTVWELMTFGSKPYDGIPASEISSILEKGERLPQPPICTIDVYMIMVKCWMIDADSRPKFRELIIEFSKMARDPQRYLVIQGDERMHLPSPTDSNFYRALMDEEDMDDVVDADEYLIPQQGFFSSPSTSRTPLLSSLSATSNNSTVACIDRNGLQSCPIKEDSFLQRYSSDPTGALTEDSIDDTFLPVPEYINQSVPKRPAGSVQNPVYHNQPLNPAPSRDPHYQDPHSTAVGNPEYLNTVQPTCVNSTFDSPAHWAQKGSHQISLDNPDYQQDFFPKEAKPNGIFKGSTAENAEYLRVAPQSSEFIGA
Series [20] is described as follows: Selectivity ratio of IC50 for antiproliferative activity against human MCF7 cells to IC50 for antiproliferative activity against human U-87 MG cells. The format is functional.
The nature of series [21]: Cytotoxicity against human L02 cells assessed as inhibition of cell growth incubated for 72 hrs by MTT assay. The format is toxicity, cell-based.
Series [22] is described as follows: Hemolytic activity in 2% sheep RBC assessed as hemolysis at 16 to 256 ug/ml incubated for 3 hrs. The format is toxicity, cell-based, Ovis aries. To be noted: erythrocyte, dose 16-256 µg/ml.
Series [23] has as its target T1, Phosphatidylinositol 4,5-bisphosphate 3-kinase catalytic subunit alpha isoform. Briefly: Inhibition of PI3Kalpha in human MCF7 cells assessed as decrease in PI3Kalpha gene expression incubated for 24 hrs by fluorescence quantitative PCR assay. The format is cell-based. To be noted: dose 0.8-1.6 µM.

Chain of RAC-alpha serine/threonine-protein kinase (Homo sapiens) (P31749 whole entry): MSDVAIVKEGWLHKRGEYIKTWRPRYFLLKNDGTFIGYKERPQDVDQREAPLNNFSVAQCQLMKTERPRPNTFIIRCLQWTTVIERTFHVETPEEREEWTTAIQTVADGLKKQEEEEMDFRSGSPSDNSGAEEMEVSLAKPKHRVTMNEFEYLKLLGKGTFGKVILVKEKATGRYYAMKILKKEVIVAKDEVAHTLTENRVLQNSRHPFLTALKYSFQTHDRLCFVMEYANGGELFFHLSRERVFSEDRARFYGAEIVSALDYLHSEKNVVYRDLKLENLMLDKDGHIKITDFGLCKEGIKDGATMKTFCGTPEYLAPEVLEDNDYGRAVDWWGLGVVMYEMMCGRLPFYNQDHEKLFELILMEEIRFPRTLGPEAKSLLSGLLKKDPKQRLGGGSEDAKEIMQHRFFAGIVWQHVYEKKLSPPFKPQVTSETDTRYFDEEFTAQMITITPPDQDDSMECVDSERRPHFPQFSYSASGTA

Regarding `CS(=O)(=O)N1CCN(Cc2ccc(-c3nc(-c4ccc(NC(=O)Nc5cnccn5)cc4)nc(N4CCOCC4)n3)s2)CC1`, the IC50 is 10.3 µM in series [1]; 2.36 µM in [3]; 0.16 µM in series [5]; 8.22 µM in [6]; 5.87 µM in series [7]; more than 100 µM in series [8]. In addition, the IC50 in [10] is 15.8 µM; in [11], 18.2 µM; in series [14], 25.4 µM; in series [15], 0.021 µM; in series [16], 7.08 µM. The Ratio IC50 in series [2] is 14.7; in [4], 0.86; in [9], 912.5. The inhibition in [12] was 20.6%; in series [13] it was 76.6%.
For `CS(=O)(=O)N1CCN(Cc2ccc(-c3nc(-c4ccc(NC(=O)Nc5ccn[nH]5)cc4)nc(N4CCOCC4)n3)s2)CC1`, the “Ratio IC50” value in series [4] turned out to be 0.69; in [9], 18.7; in [20], 0.2. For the same molecule, the inhibition came to 4.03% in series [17]; 1.77% in series [18]; 10.5% in series [19]; 87.2% in series [12]; 91.1% in series [13]. For the same molecule, the IC50 worked out at 5.27 µM in series [6]; 1.8 µM in series [7]; 8.96 µM in series [8]; 2.12 µM in series [10]; 4.3 µM in series [11]; 11.5 µM in series [14]. Also, the IC50 stood at 0.23 µM in series [15] and 3.62 µM in [16]. Besides, the IC50 at 72 h in [21] was more than 100 µM.
`CS(=O)(=O)N1CCN(Cc2ccc(-c3nc(-c4ccc(NC(=O)Nc5ccncc5)cc4)nc(N4CCOCC4)n3)s2)CC1`: the half-inhibitory concentration (IC50) in series [1] came to 0.22 µM; in series [3], 0.177 µM; in [6] it was 0.008 µM; in [7] it was 0.3 µM; in series [8], 1.25 µM; in [10], 0.25 µM. Besides, the IC50 in series [11] was 1.04 µM; in series [14], 2.31 µM; in series [15] it was 0.37 µM; in series [16] it was 0.47 µM. Also, in series [22], the Activity entry is reported as “Non-Toxic”. The inhibition is 18.2% in [17]; “Dose-Dependent Effect” in series [23]; 1.74% in [18]; 6.24% in series [19]; 88.2% in series [12]. For the same molecule, the IC50 at 72 h in series [21] was more than 100 µM.
Take `Cn1ccc(NC(=O)Nc2ccc(-c3nc(-c4ccc(CN5CCN(S(C)(=O)=O)CC5)s4)nc(N4CCOCC4)n3)cc2)n1`: the IC50 in series [3] came to 0.299 µM; in series [6] it was 0.16 µM; in [7] it was 1.05 µM; in series [8], 0.24 µM; in [10], 1.06 µM; in series [11] it was 2.36 µM. The concentration for half-maximal inhibition (IC50) amounted to 3.21 µM in series [14], 2.07 µM in series [15] and 0.11 µM in series [16]. Also, the inhibition in [17] was found to be 1.02%; in [12] it was 80.1%. Further, the inhibition result in series [18] and in series [19] was “inactive” throughout. Further, the concentration for half-maximal inhibition (IC50) at 72 h in [21] is more than 100 µM.

Broadly, the IC50 is the midpoint of a concentration-inhibition curve. The inhibition is the relative decrease from the control value, in per cent.
